Test results as given in ChEMBL document CHEMBL4196150, “Structurally Diverse Highly Oxygenated Triterpenoids from the Roots of Ailanthus altissima and Their Cytotoxicity” (J Nat Prod, 2018).

Key:
Type in all cases: functional, cell-based
786-0 = assay: Cytotoxicity against human 786-O cells after 72 hrs by MTT assay; conditions: 786-0, 72 h
HeLa = assay: Cytotoxicity against human HeLa cells after 72 hrs by MTT assay
HepG2 = assay: Cytotoxicity against human HepG2 cells after 72 hrs by MTT assay; conditions: HepG2, 72 h
A549 = assay: Cytotoxicity against human A549 cells after 72 hrs by MTT assay; conditions: A549, 72 h

Compound | IC50 (786-0) [µM] | IC50 (HeLa) [µM] | IC50 (HepG2) [µM] | IC50 (A549) [µM]
C/C=C(\C)C(=O)O[C@@H]1C[C@]2(C)C(=CC[C@H]2C2=C[C@H]([C@H](O)C(C)(C)OC)OC2=O)[C@]2(C)[C@H](O)C[C@H]3C(C)(C)OC(=O)C=C[C@]3(C)[C@@H]12 | > 40 | > 40 | > 40 | > 40
C/C=C(\C)C(=O)O[C@@H]1C[C@]2(C)C(=CC[C@H]2C2=CO[C@@H]([C@H](O)C(C)(C)O)C2)[C@]2(C)[C@H](O)C[C@H]3C(C)(C)OC(=O)C=C[C@]3(C)[C@@H]12 | 34.4 | 33.2 | 38.8 | 39.8
COc1cc2c(c(OC)c1OC)-c1ccc(OC)c(=O)cc1[C@@H](NC(C)=O)CC2 [COLCHICINE] | 0.022 | – | 0.078 | 0.043
C/C=C(\C)C(=O)O[C@@H]1C[C@]2(C)C(=CC[C@H]2[C@@H]2C[C@H]([C@H](O)C(C)(C)OC)O[C@H]2OC)[C@]2(C)[C@H](O)C[C@H]3C(C)(C)OC(=O)C=C[C@]3(C)[C@@H]12 | > 40 | > 40 | > 40 | > 40
C=C(C)[C@H](O)[C@H]1C=C([C@@H]2CC=C3[C@]4(C)[C@H](O)C[C@H]5C(C)(C)OC(=O)C=C[C@]5(C)[C@H]4[C@H](OC(=O)/C(C)=C/C)C[C@]32C)C(=O)O1 | > 40 | > 40 | > 40 | > 40
C[C@@H](C[C@@H](O)[C@H](O)C(C)(C)O)[C@@H]1CC[C@]2(C)C3=CC[C@H]4C(C)(C)C(=O)CC[C@]4(C)[C@H]3CC[C@@]12C | > 40 | > 40 | > 40 | > 40
COC(=O)CC[C@]1(C)[C@H]2CC[C@@]3(C)[C@H]([C@@H](C)C[C@@H](O)[C@H](O)C(C)(C)O)CC[C@]3(C)C2=CC[C@H]1C(C)(C)O | 27.4 | 38.4 | 35.5 | 38.6
CC(C)(O)[C@@H]1OC[C@H]([C@@H]2CC[C@]3(C)C4=CC[C@H]5C(C)(C)C(=O)CC[C@]5(C)[C@H]4CC[C@@]23C)C[C@H]1O | > 40 | > 40 | > 40 | > 40
CC1(C)C(=O)CC[C@]2(C)[C@H]3C[C@@H](O)[C@@H]4[C@@H]([C@]5(C)CCC(=O)O5)CC[C@@]4(C)[C@]3(C)CC[C@@H]12 | > 40 | > 40 | > 40 | > 40
C/C=C(\C)C(=O)O[C@@H]1C[C@]2(C)C(=CC[C@H]2[C@@H]2C[C@H]([C@H](O)C(C)(C)OC)O[C@@H]2OC)[C@]2(C)[C@H](O)C[C@H]3C(C)(C)OC(=O)C=C[C@]3(C)[C@@H]12 | 8.2 | 38.4 | 38.8 | 12.5
C/C=C(\C)C(=O)O[C@@H]1C[C@]2(C)C(=CC[C@H]2C2=C[C@H]([C@H](O)C(C)(C)O)OC2=O)[C@]2(C)[C@H](O)C[C@H]3C(C)(C)OC(=O)C=C[C@]3(C)[C@@H]12 | > 40 | > 40 | > 40 | > 40
CC(C)(O)[C@@H]1OC[C@H]([C@@H]2CC[C@]3(C)C4=CC(=O)[C@H]5C(C)(C)C(=O)CC[C@]5(C)[C@H]4CC[C@@]23C)C[C@H]1O | > 40 | > 40 | > 40 | > 40
CC1(C)C(=O)CC[C@]2(C)[C@H]3CC[C@@H]4[C@@H]([C@]5(C)CCC(=O)O5)CC[C@@]4(C)[C@]3(C)CC[C@@H]12 [CABRALELACTONE] | > 40 | > 40 | > 40 | > 40
COC(C)(C)[C@@H](O)[C@H]1C=C([C@@H]2CC(=O)[C@@H]3[C@@]2(C)CC[C@@H]2[C@@]4(C)C=CC(=O)OC(C)(C)[C@@H]4C[C@@H](OC(C)=O)[C@]23C)C(=O)O1 | > 40 | > 40 | > 40 | > 40
